Data: patent US12582721B2, “Molybdenum-based feed supplement for bees” (UNIVERSITE DE VERSAILLES—SAINT-QUENTIN-EN-YVELINES, priority 2020, dated 2026)

Tests used:
[1] = tested on: human cervical epithelial cells of the HeLa line; experiment: Resazurin cell proliferation test, HeLa cells; assay type: cell-based
Text: (§1) For cell culture, human cervical epithelial cells of the HeLa line, human epithelial pancreatic adenocarcinoma cells of the BxPC-3 line and healthy Madin-Darby canine kidney epithelial cells of the MDCK line were used in this study. The Resazurin cell proliferation test was applied according to the literature (S. Anoopkumar-Dukie, J. B. Carey, T. Conere, E. O'Sullivan, F. N. van Pelt, A. Allshire, Br J Radiol 2005, 78, 945, DOI: 10.1259/bjr/54004230). As an indicator of the effectiveness of the experimental compounds on cell proliferation, the median inhibitory concentration (IC50) was used. The lower the IC50 value, the higher the activity (in this case, the cytotoxicity).
(§2) Five formula I complexes were tested in this study in comparison to two reference anti-cancer compounds (“Cisplatin” and Doxorubicin complex).

[2] = tested on: human epithelial pancreatic adenocarcinoma cells of the BxPC-3 line; experiment: Resazurin cell proliferation test, BxPC-3 cells; assay type: cell-based
Text: as §1, §2

[3] = tested on: healthy Madin-Darby canine kidney epithelial cells of the MDCK line; experiment: Resazurin cell proliferation test, MDCK cells; assay type: cell-based
Text: as §1, §2

[4] = Chemical stability of the complexes (solid, water, physiological medium, sugar syrup; 1H-NMR or UV-vis); assay type: physicochemical; conditions: for Stability in a physiological medium or in a sugar syrup: physiological medium or sugar syrup with 50% by weight, very low concentrations; for Stability in water: 5×10^−3-2×10^−7 M concentration range (K—Mo2O2S2-LCys: down to micromolar concentrations)
Text: In solid form, the compounds obtained are perfectly stable in air and can be kept without any special conditions for years without any alteration.
The stabilities of the complexes in solution are studied by different techniques (^1H-NMR or UV-vis spectroscopy), the objective being to study their behavior in different media in terms of stability.

[5] = cited from earlier work
[6] = cervical cancer cells, IC50 equal to and greater than 100 μM considered no activity
[7] = pancreatic cancer cells, IC50 equal to and greater than 100 μM considered no activity
[8] = healthy cells, IC50 equal to and greater than 100 μM considered no activity

N.N.[Cl][Pt][Cl] [Cisplatin, reference compound]
IC50 [1, 6]: 3.99 ± 0.33 µM | IC50 [2, 7]: 11.2 ± 1.2 µM | IC50 [3, 8]: 30.9 ± 1.1 µM

COc1cccc2c1C(=O)c1c(O)c3c(c(O)c1C2=O)C[C@@](O)(C(=O)CO)C[C@@H]3O[C@H]1C[C@H](N)[C@H](O)[C@H](C)O1 [Doxorubicin, reference compound]
IC50 ([1]; Homo sapiens, HeLa): 1.31 µM | IC50 ([2]; Homo sapiens, BXPC-3): 3.99 ± 7.9 µM | IC50 ([3]; Canis lupus familiaris, MDCK): 1.48 ± 3.1 µM

N[C@@H](C[S-])C(=O)[O-].N[C@@H](C[S-])C(=O)[O-].[K+].[K+].[O]=[Mo+]12[S][Mo+]1(=[O])[S]2 [K—Mo2O2S2-Cys, K2[Mo2O2S2 (LCys)2]·xH2O]
IC50, HeLa [1, 6]: Inactive | Stability in a physiological medium or in a sugar syrup [4]: good stability | Stability in water [4]: without any breakdown | IC50, BxPc-3 [2, 7]: Inactive | IC50, MDCK [3, 8]: Inactive

O=C([O-])CN(CCN(CC(=O)[O-])CC(=O)[O-])CC(=O)[O-].[O]=[Mo+]12[S][Mo+]1(=[O])[S]2.c1ccc([P+](c2ccccc2)(c2ccccc2)c2ccccc2)cc1.c1ccc([P+](c2ccccc2)(c2ccccc2)c2ccccc2)cc1 [PPh4—Mo2O2S2-EDTA]
IC50 [1, 6]: ≥ 100 µM | IC50 [2, 7]: 59.8 ± 26.4 µM | IC50 [3, 8]: ≥ 100 µM

O=C([O-])CN(CCN(CC(=O)[O-])CC(=O)[O-])CC(=O)[O-].[O]=[Mo+]12[S][Mo+]1(=[O])[S]2 [[Mo2O2S2-EDTA]^2−]
Stability in a physiological medium or in a sugar syrup [4]: good stability | Stability in water [4]: no sign of decomposition

[Li] [lithium]
Serum lithium concentration at which toxicity appears [5]: greater than 2 mmol/l
